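How tested: cells in 96-well plates exposed to compound for 48 hours at five concentrations. TGI marks complete inhibition of growth.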
Legend:
Experiment in all cases: NCI tumour cell line growth inhibition, 48 h
HCT-15 colon = tested on: HCT-15 colon
M14 melanoma = tested on: M14 melanoma
HCC-2998 colon = tested on: HCC-2998 colon
LOX IMVI melanoma = tested on: LOX IMVI melanoma
DMS 114 small cell lung = tested on: DMS 114 small cell lung
SNB-19 CNS = tested on: SNB-19 CNS
IGROV1 ovarian = tested on: IGROV1 ovarian
RXF-631 renal = tested on: RXF-631 renal
NCI-H522 lung = tested on: NCI-H522 lung
LXFL 529 NSCLC = tested on: LXFL 529 NSCLC
MOLT-4 leukemia = tested on: MOLT-4 leukemia
NCI-H226 lung = tested on: NCI-H226 lung
NCI-H460 lung = tested on: NCI-H460 lung
SW-620 colon = tested on: SW-620 colon
HOP-62 NSCLC = tested on: HOP-62 NSCLC
A498 renal = tested on: A498 renal
HCT-116 colon = tested on: HCT-116 colon
CAKI-1 renal = tested on: CAKI-1 renal
MALME-3M melanoma = tested on: MALME-3M melanoma
CCRF-CEM leukemia = tested on: CCRF-CEM leukemia
UACC-257 melanoma = tested on: UACC-257 melanoma
SF-268 CNS = tested on: SF-268 CNS
RXF 393 renal = tested on: RXF 393 renal
OVCAR-3 ovarian = tested on: OVCAR-3 ovarian
DLD-1 colon = tested on: DLD-1 colon
NCI-H23 lung = tested on: NCI-H23 lung
HL-60(TB) leukemia = tested on: HL-60(TB) leukemia
M19-MEL melanoma = tested on: M19-MEL melanoma
KM20L2 colon = tested on: KM20L2 colon
COLO 205 colon = tested on: COLO 205 colon
HT29 colon = tested on: HT29 colon
786-0 renal = tested on: 786-0 renal
RPMI-8226 leukemia = tested on: RPMI-8226 leukemia
A549 NSCLC = tested on: A549 NSCLC
OVCAR-5 ovarian = tested on: OVCAR-5 ovarian
DMS 273 small cell lung = tested on: DMS 273 small cell lung
SK-MEL-5 melanoma = tested on: SK-MEL-5 melanoma
KM12 colon = tested on: KM12 colon
K-562 leukemia = tested on: K-562 leukemia
SNB-75 CNS = tested on: SNB-75 CNS
HOP-18 NSCLC = tested on: HOP-18 NSCLC
SF-295 CNS = tested on: SF-295 CNS
SF-539 CNS = tested on: SF-539 CNS
SK-MEL-28 melanoma = tested on: SK-MEL-28 melanoma
SR leukemia = tested on: SR leukemia
TK-10 renal = tested on: TK-10 renal
OVCAR-4 ovarian = tested on: OVCAR-4 ovarian
OVCAR-8 ovarian = tested on: OVCAR-8 ovarian
UACC-62 melanoma = tested on: UACC-62 melanoma
HOP-92 NSCLC = tested on: HOP-92 NSCLC
SK-OV-3 ovarian = tested on: SK-OV-3 ovarian
U251 CNS = tested on: U251 CNS
SN12C renal = tested on: SN12C renal
SNB-78 CNS = tested on: SNB-78 CNS
EKVX NSCLC = tested on: EKVX NSCLC
ACHN renal = tested on: ACHN renal
UO-31 renal = tested on: UO-31 renal
XF 498 CNS = tested on: XF 498 CNS

Compound CC(C)c1ccccc1NC(=O)CCc1n[nH]c(=S)o1 has a TGI (HCT-15 colon) greater than 56.9 µM, a TGI (M14 melanoma) greater than 100 µM and a TGI (HCC-2998 colon) greater than 100 µM. For the same compound, the TGI (LOX IMVI melanoma) was greater than 100 µM, the TGI (DMS 114 small cell lung) was greater than 100 µM and the TGI (SNB-19 CNS) was greater than 100 µM. It also gave a TGI (IGROV1 ovarian) greater than 100 µM, a TGI (RXF-631 renal) greater than 100 µM and a TGI (NCI-H522 lung) greater than 100 µM. For the same compound, the TGI (LXFL 529 NSCLC) was greater than 100 µM, the TGI (MOLT-4 leukemia) was greater than 100 µM and the TGI (NCI-H226 lung) was greater than 100 µM. The TGI (NCI-H460 lung) was greater than 80.1 µM, the TGI (SW-620 colon) was greater than 56 µM and the TGI (HOP-62 NSCLC) was greater than 100 µM. The TGI (A498 renal) was greater than 100 µM, the TGI (HCT-116 colon) was greater than 100 µM and the TGI (CAKI-1 renal) was greater than 100 µM. The TGI (MALME-3M melanoma) was greater than 100 µM, the TGI (CCRF-CEM leukemia) was greater than 100 µM and the TGI (UACC-257 melanoma) was greater than 100 µM. For the same compound, the TGI (SF-268 CNS) was greater than 100 µM, the TGI (RXF 393 renal) was greater than 100 µM and the TGI (OVCAR-3 ovarian) was greater than 100 µM. The TGI (DLD-1 colon) was greater than 89.2 µM, the TGI (NCI-H23 lung) was greater than 100 µM and the TGI (HL-60(TB) leukemia) was greater than 89.2 µM. For the same compound, the TGI (M19-MEL melanoma) was greater than 100 µM, the TGI (KM20L2 colon) was greater than 100 µM and the TGI (COLO 205 colon) was 58.3 µM. For the same compound, the TGI (HT29 colon) was greater than 100 µM, the TGI (786-0 renal) was greater than 100 µM and the TGI (RPMI-8226 leukemia) was greater than 72.1 µM. It also gave a TGI (A549 NSCLC) greater than 100 µM, a TGI (OVCAR-5 ovarian) greater than 100 µM and a TGI (DMS 273 small cell lung) greater than 90.7 µM. It also gave a TGI (SK-MEL-5 melanoma) greater than 100 µM, a TGI (KM12 colon) greater than 100 µM and a TGI (K-562 leukemia) greater than 73.1 µM. It also gave a TGI (SNB-75 CNS) greater than 100 µM, a TGI (HOP-18 NSCLC) greater than 100 µM and a TGI (SF-295 CNS) greater than 100 µM. The TGI (SF-539 CNS) was greater than 100 µM, the TGI (SK-MEL-28 melanoma) was greater than 100 µM and the TGI (SR leukemia) was greater than 100 µM. The TGI (TK-10 renal) was greater than 100 µM, the TGI (OVCAR-4 ovarian) was greater than 100 µM and the TGI (OVCAR-8 ovarian) was greater than 100 µM. It also gave a TGI (UACC-62 melanoma) greater than 100 µM, a TGI (HOP-92 NSCLC) greater than 100 µM and a TGI (SK-OV-3 ovarian) greater than 100 µM. The TGI (U251 CNS) was greater than 100 µM, the TGI (SN12C renal) was greater than 100 µM and the TGI (SNB-78 CNS) was greater than 100 µM. It also gave a TGI (EKVX NSCLC) greater than 100 µM, a TGI (ACHN renal) greater than 100 µM and a TGI (UO-31 renal) greater than 100 µM. The TGI (XF 498 CNS) was greater than 100 µM.
